The values that follow come from patent publication US8461193B2, “Substituted pyrrolo-pyrazole derivatives active as kinase inhibitors” (Nerviano Medical Sciences S.R.L., priority 2005, dated 2013).

Assay [1] relates to IGF1-induced S6 phosphorylation. Kind of assay: Growth factor induced S6 ribosomal protein phosphorylation in primary human fibroblasts. It is filed as cell-based. Particulars: normal human dermal fibroblasts (NHDF), stimulated with 10 nM IGF-1; read-out: Inhibition of IGF1-induced S6 phosphorylation IC50. The procedure: Growth Factor Induced S6 Ribosomal Protein Phosphorylation in Primary Human Fibroblasts.
Phosphorylation of S6 ribosomal protein in response to growth factor stimulation of normal human dermal fibroblasts (NHDF) was used to assess compound potency in inhibiting IGF-1 induced signal transduction in cells, and selectivity towards EGF and PDGF stimulus. NHDF cells obtained from PromoCell (Heidelberg, Germany), were maintained at 37° C. in a humidified atmosphere with 5% CO2 in complete Fibroblast Growth Medium (PromoCell). For assay, NHDF were seeded in 384-well tissue culture plates (clear- and flat-bottomed black plates; Matrix Technologies Inc., Hudson, N.H., USA) at a density of 5000 cells/well in serum-free medium containing 0.1% bovine serum albumin (BSA) and incubated for 5 days. Starved cells were treated for 1 hour with desired doses of compounds and then stimulated for a further 2 hours with either 10 nM IGF-1 (Invitrogen Corp., CA, USA), 10 nM EGF (Gibco BRL, USA) or 1 nM PDGF-B/B (Roche Diagnostics GmbH, Germany). Cells were then fixed in PBS/3.7% paraformaldehyde for 20 minutes at room temperature, washed ×2 with PBS, and permeabilized with PBS/0.3% Triton X-100 for 15 minutes. Wells were then saturated with PBS/1% non-fat dry milk (Bio-Rad Laboratories, Hercules, Calif., USA) for 1 hour, and then probed for 1 hour at 37° C. with anti-phospho-S6 (Ser 235/236) antibody (Cell Signaling Technology, Beverly, Mass., USA, cat. #2211) at 1/200 dilution in PBS/1% milk/0.3% Tween 20. […] Fluorescence images in the DAPI and Cy5™ channels were automatically acquired, stored and analysed using a Cellomics ArrayScan™ IV instrument (Cellomics, Pittsburgh, USA); the Cellomics Cytotoxicity Algorithm was used to quantify cytoplasmic fluorescence associated with phospho-S6 (Cy5™ signal parameter: “Mean Lyso Mass-pH”) for each cell in 10 fields/well, and eventually expressed as a mean population value. […]

Assay [2] has as its target T1, IGF1R (Homo sapiens, UniProt P08069). Kind of assay: Western blot analysis of receptor phosphorylation following stimulation with IGF-1 in MCF-7 human breast cancer cells. It counts as cell-based. Also noted: endogenous in cells; host or cells: MCF-7 (ATCC# HTB-22). Particulars: starved MCF-7 cells, increasing concentrations of compound prior to 10 nM IGF1. The procedure: Cell-Based Assays for Inhibitors of IGF-1R Kinase Activity Western Blot Analysis of Receptor Phosphorylation Following Stimulation with IGF-1 in MCF-7 Human Breast Cancer Cells
MCF-7 cells (ATCC# HTB-22) were seeded in 12-well tissue culture plates at 2×10^5 cells/well in E-MEM medium (MEM+Earle's BSS+2 mM glutamine+0.1 mM non-essential amino acids)+10% FCS, and incubated overnight at 37° C., 5% CO2, 100% relative humidity. Cells were then starved by replacing E-MEM+10% FCS with E-MEM+0.1% BSA, and incubating overnight. After this incubation, wells were treated with desired concentrations of compound for 1 hour at 37° C., and were then stimulated with 10 nM recombinant human IGF-1 (Invitrogen, Carlsbad, Calif., USA) for 10 minutes at 37° C. […] Cell lysates were cleared by centrifugation at 10,000×g for 5 minutes, and 10 microg/lane of cleared lysate protein were run on NuPAGE gels (NuPAGE 4-12% 10-lane Bis-Tris gels, Invitrogen) with MOPS running buffer, then transferred onto Hybond-ECL nitrocellulose filters (Amersham Biosciences, Little Chalfont, Buckinghamshire, UK) using Mini PROTEAN II chambers (Bio-Rad Laboratories, Hercules, Calif., USA). […] In either case, filters were then washed for 30 minutes with several changes of TBS+0.15% Tween 20, and incubated for 1 hour in washing buffer containing 1/5000 dilution of horseradish peroxidase conjugated anti-rabbit IgG (Amersham, product #NA934), then were washed again and developed using the ECL chemiluminescence system (Amersham) according to manufacturer's recommendations. Unless otherwise stated, reagents used were from Sigma-Aldrich, St. Louis, Mo., USA.
Target sequence in this assay (P08069 31-1367): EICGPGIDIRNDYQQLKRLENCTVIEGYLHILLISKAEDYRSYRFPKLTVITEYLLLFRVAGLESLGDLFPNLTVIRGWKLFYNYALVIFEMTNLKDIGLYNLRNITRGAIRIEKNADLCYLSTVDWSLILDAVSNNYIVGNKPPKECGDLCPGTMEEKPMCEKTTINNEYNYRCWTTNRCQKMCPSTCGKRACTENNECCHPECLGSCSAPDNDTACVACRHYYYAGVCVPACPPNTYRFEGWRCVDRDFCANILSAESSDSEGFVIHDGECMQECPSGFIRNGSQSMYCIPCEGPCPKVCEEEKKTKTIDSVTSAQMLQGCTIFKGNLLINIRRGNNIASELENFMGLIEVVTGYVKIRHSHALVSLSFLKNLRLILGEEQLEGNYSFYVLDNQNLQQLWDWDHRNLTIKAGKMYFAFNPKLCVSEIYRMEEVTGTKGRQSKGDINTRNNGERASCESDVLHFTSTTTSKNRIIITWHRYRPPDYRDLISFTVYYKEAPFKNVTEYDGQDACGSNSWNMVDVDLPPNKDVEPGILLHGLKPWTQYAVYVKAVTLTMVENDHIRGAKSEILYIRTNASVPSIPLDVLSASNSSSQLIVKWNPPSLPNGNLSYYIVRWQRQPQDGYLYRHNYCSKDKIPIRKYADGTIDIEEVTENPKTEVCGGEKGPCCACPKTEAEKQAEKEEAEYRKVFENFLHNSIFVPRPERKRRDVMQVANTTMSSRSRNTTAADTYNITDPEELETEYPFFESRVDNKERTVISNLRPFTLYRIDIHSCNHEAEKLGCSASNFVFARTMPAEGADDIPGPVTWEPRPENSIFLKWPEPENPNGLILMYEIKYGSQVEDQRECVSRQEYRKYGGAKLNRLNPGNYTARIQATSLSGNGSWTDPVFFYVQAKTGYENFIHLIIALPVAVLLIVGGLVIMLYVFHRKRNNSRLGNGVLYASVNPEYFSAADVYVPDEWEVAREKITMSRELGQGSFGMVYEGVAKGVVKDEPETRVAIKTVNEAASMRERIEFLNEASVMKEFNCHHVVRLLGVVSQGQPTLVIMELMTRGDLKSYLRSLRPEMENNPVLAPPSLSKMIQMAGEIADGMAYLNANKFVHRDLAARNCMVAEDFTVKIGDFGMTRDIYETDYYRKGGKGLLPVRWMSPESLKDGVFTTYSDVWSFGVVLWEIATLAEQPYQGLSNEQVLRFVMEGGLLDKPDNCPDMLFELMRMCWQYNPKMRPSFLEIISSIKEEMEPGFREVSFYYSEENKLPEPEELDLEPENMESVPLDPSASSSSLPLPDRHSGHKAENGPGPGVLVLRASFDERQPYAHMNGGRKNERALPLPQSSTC

Assay [3] concerns the target T1, IGF1R. Kind of assay: Biochemical assay for inhibitors of IGF-1R kinase activity (trans-phosphorylation assay, robotized Dowex assay). Also noted: amino acid residues 960-1367 of precursor protein; made in house; host or cells: H5 insect cells (baculovirus; virus made in Sf21 cells). The procedure:
ID NO: 2). […] The inhibitory activity of putative kinase inhibitors and the potency of selected compounds were determined using a trans-phosphorylation assay.
Target sequence in this assay (P08069 960-1367): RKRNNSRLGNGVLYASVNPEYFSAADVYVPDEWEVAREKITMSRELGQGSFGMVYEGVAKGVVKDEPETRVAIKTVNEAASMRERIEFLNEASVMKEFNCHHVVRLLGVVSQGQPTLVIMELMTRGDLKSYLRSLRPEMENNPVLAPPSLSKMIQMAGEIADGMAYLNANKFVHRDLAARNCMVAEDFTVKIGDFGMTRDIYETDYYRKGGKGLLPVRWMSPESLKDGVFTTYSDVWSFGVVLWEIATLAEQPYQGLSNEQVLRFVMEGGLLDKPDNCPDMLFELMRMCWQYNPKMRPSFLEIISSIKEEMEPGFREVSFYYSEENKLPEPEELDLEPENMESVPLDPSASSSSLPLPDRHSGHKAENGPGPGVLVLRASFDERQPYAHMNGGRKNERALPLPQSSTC

The mark [4] stands for this setting: 6 nM enzyme, 6 microM ATP, 10 microM peptide substrate, read-out: IGF1R IC50 (μM) Biochemical assay.

Where two headings read alike, the source gives them in different places.

One may read the IC50 as the concentration that gives 50% inhibition. As for `CN1CCN(c2ccc(C(=O)Nc3n[nH]c4c3CN(S(=O)(=O)c3cc(F)cc(F)c3)C4(C)C)c(NC(=O)c3cc[nH]c3)c2)CC1` [Compound 11, 1H-pyrrole-3-carboxylic acid [2-[5-(3,5-difluoro-benzenesulfonyl)-6,6-dimethyl-1,4,5,6-tetrahydro-pyrrolo[3,4-c]pyrazol-3-ylcarbamoyl]-5-(4-methyl-piperazin-1-yl)-phenyl]-amide], the IC50 in assay [1] came to 0.3 µM; in assay [3], 0.09 µM. The “inhibition of IGF1-induced IGF1R auto-phosphorylation (pIGF1R band, FIG. 1)” value (“inhibition” for short) in assay [2] is recorded as “inhibition of IGF1-induced IGF1R auto-phosphorylation”.

Consider `CC(C)CNc1cc(N2CCN(C)CC2)ccc1C(=O)Nc1n[nH]c2c1CN(S(=O)(=O)c1cc(F)cc(F)c1)C2(C)C.Cl` [Compound 90, N-[5-(3,5-Difluoro-benzenesulfonyl)-6,6-dimethyl-1,4,5,6-tetrahydro-pyrrolo[3,4-c]pyrazol-3-yl]-2-isobutylamino-4-(4-methyl-piperazin-1-yl)-benzamide hydrochloride], for which the values for the IC50 in assay [1] and in assay [3] (setting [4]) were 5.3 µM and 0.46 µM, respectively. Also, the “inhibition” value in assay [2] was “inhibition of IGF1-induced IGF1R auto-phosphorylation”.

With `CN1CCN(c2ccc(C(=O)Nc3n[nH]c4c3CN(S(=O)(=O)c3cc(F)cc(F)c3)C4(C)C)c(NC(=O)[C@@H]3CCCO3)c2)CC1` [Compound 1, (S)-Tetrahydro-furan-2-carboxylic acid [2-[5-(3,5-difluoro-benzenesulfonyl)-6,6-dimethyl-1,4,5,6-tetrahydro-pyrrolo[3,4-c]pyrazol-3-ylcarbamoyl]-5-(4-methyl-piperazin-1-yl)-phenyl]-amide], the IC50 was found to be 0.74 µM in assay [1] and 0.17 µM in assay [3] (setting [4]). For the same molecule, the “inhibition” value in assay [2] is given as “inhibition of IGF1-induced IGF1R auto-phosphorylation”.
